{
  "source": "patent US9220680B2",
  "about": "“Compositions and methods for localized drug delivery through mammary papillae” (South Dakota State University, priority 2012, dated 2015)",
  "key": {"[1]": {"test": "In vitro penetration and permeation via excised porcine mammary papilla, Franz diffusion cell (Example 1)", "type": "in vitro ADME", "method": "Drug penetration and permeation via mammary papillae was performed in a Franz diffusion cell using excised porcine mammary papilla. […] The transport studies were performed at time points for 6 and 48 hours.\nIn a separate study to evaluate the drug retention and disposition, the treatment was removed after 6 hours and the study was continued until the 48 hour mark. Samples were withdrawn from the receptor compartment at different time points. At the end of study, the mammary papilla was cut to 2 mm thick cylindrical sections from the top to the base of the tissue and was digested using a tissue solubilizer. The drug concentrations were determined by liquid scintillation counting.\nMethods for the preparation of porcine mammary papilla. Freshly excised strips of porcine mammary papilla (6-7 months old animals) were washed with deionized water followed by removal of subcutaneous fatty tissue using a scalpel. Keeping the mammary papilla in the center, 3 cm×3 cm sized specimens of the tissue were excised, subcutaneous fat tissue was removed, and the tissue was frozen at −20° C. until used for the drug penetration and permeation studies.\nBreast tissue was mounted between the two compartments of a vertical Franz diffusion cell (FDC) with breast tissue sandwiched between donor and receptor compartments. A mammary papilla was set in upright position inside the donor compartment of Franz diffusion cell. […] Samples were withdrawn from the receptor at different time points for 48 hours to determine drug concentration by radioactive count. At the end of 48 hours, tissue samples were taken for drug content determination. […]\nIn a second study, the mammary papillae in Franz diffusion cells were treated with the drugs for 48 hours and the permeation was followed through 48 hours. This analysis provided information regarding any saturation from drug treatment for extended periods of time. […]\nExtraction of drugs from the mammary papilla. At the end of permeation study, the mammary papilla was removed from Franz diffusion cell and thoroughly washed with deionized water and blotted dried. Approximately 2 mm thick sections of the tissue were taken using a scalpel. These sections were homogenized, the drug was extracted, and the drug concentration was determined by radioactive counts."}, "[2]": {"settings": "cited from earlier work"}, "[3]": {"settings": "rat"}, "[4]": {"test": "Transmammary permeation across human mammary papilla with and without removal of the keratin plug (Experiments 12-18)", "type": "in vitro ADME", "settings": "for lag time / cumulative amount permeated / Drug retention in tissue / Flux: value (SEM); for cumulative amount permeated: 48 hours; for Drug retention in tissue: end of 48 hours", "excerpt": "Mammary papillae tissues were thawed. […] The drug solutions were spiked with radioactive substances. […] Receptor medium was PBS with 7.4 pH. […] Results may be seen in FIG. 37 and Table 13.\nMammary papillae tissues were thawed. […] The drug solutions were spiked with radioactive substances. […] Receptor medium was PBS with 7.4 pH. […] Results may be seen in FIG. 38 and Table 15.\nMammary papillae tissues were thawed. […] The drug solutions were spiked with radioactive substances. […] Receptor medium was PBS with 7.4 pH. […] Results may be seen in FIG. 39 and Table 17.\nMammary papillae tissues were thawed. […] The drug solutions were spiked with radioactive substances. […] Receptor medium was PBS with 7.4 pH. […] Results may be seen in FIG. 40.\nMammary papillae and skin tissues were thawed. […] The drug solutions were spiked with radioactive substances. […] Receptor medium was PBS with 7.4 pH. […] Results may be seen in FIG. 41 and Table 20.\nMammary papillae and skin tissues were thawed. […] The drug solutions were spiked with radioactive substances. […] Receptor medium was PBS with 7.4 pH. […] Results may be seen in FIG. 42 and Table 22.\nMammary papillae tissues were thawed. […] The drug solutions were spiked with radioactive substances. […] Receptor medium was PBS with 7.4 pH. […] Results may be seen in FIG. 43 and Table 24."}, "[5]": {"test": "Permeation across human breast skin (Experiments 16-18)", "type": "in vitro ADME", "settings": "human breast skin, value (SEM)", "excerpt": "Mammary papillae and skin tissues were thawed. Keratin plugs were removed from the mammary papilla tissues using swabs with ethanol. […] The drug solutions were spiked with radioactive substances. […] Receptor medium was PBS with 7.4 pH. […] Results may be seen in FIG. 41 and Table 20.\nMammary papillae and skin tissues were thawed. Keratin plugs were removed from the mammary papilla tissues using swabs with ethanol. […] The drug solutions were spiked with radioactive substances. […] Receptor medium was PBS with 7.4 pH. […] Results may be seen in FIG. 42 and Table 22. […]"}, "[6]": {"settings": "excised porcine mammary papilla, saturated solution in ethanol:water (50:50), 48 h, mean ± SEM, n=3"}, "[7]": {"settings": "porcine mammary papilla, end of 48 h, mean ± SEM, n=3"}, "[8]": {"settings": "5FU 20 mg/ml, human mammary papilla with keratin plug removal"}, "[9]": {"settings": "5FU 20 mg/ml, human mammary papilla without keratin plug removal"}},
  "note": "“Also recorded” adds a separate entry of the source. Read-outs that look alike come from different tables or passages of the source.",
  "data": [
    {"smiles": "O=c1[nH]cc(F)c(=O)[nH]1", "note": "[5FU, 5-fluorouracil]", "values": [
      {"measurement": "Lag time", "setting": "[1]; excised porcine mammary papilla, Franz diffusion cell, saturated solution in ethanol:water (50:50), 48 h, mean ± SEM, n=3", "value": "8.18 ± 0.79", "unit": "h"},
      {"measurement": "Cumulative % permeated", "setting": "[1]; [6]", "value": "5.71 ± 0.06", "unit": "%"},
      {"measurement": "Flux × 10^3", "setting": "[1]; [6]", "value": "38.46 ± 2.38", "unit": "μM · cm^2 · hr^−1"},
      {"measurement": "Permeability coefficient × 10^3", "setting": "[1]; [6]", "value": "0.25 ± 0.015", "unit": "cm^2 · hr^−1"},
      {"measurement": "cumulative amount permeated", "setting": "[1]; [6]", "value": "4.38 ± 0.04", "unit": "µM"},
      {"measurement": "Cumulative % retained", "setting": "[1]; [7]", "value": "4.94 ± 0.74", "unit": "%"},
      {"measurement": "Cumulative amount retained", "setting": "[1]; [7]", "value": "3.80 ± 0.56", "unit": "µM"},
      {"measurement": "Drug extraction from 2 mm thick mammary papilla sections, Section A (tip)", "setting": "[1]; [7]", "value": "13.47 ± 1.35", "unit": "µM/g"},
      {"measurement": "Drug extraction from 2 mm thick mammary papilla sections, Section B", "setting": "[1]; [7]", "value": "11.78 ± 1.69", "unit": "µM/g"},
      {"measurement": "Drug extraction from 2 mm thick mammary papilla sections, Section C", "setting": "[1]; [7]", "value": "9.80 ± 1.44", "unit": "µM/g"},
      {"measurement": "Drug extraction from 2 mm thick mammary papilla sections, Section D (base)", "setting": "[1]; [7]", "value": "5.84 ± 1.69", "unit": "µM/g"},
      {"measurement": "Permeation across mammary papilla (in words)", "setting": "[1]; porcine mammary papilla, treatment up to 48 hours", "value": "significant amount of 5FU passes through the mammary papilla"},
      {"measurement": "Log P", "setting": "[2]", "value": "−0.89"},
      {"measurement": "Profile of 5FU in plasma", "setting": "[3]; intravenous injection", "value": "quickly eliminating from the blood"},
      {"measurement": "Retention of 5FU in mammary papilla", "setting": "[3]; intravenous injection, 30 minutes", "value": "some accumulation of 5FU into the mammary papilla"},
      {"measurement": "5FU retention into the vital organs (kidneys, heart, liver, lungs, spleen and brain)", "setting": "[3]; topical application (transmammary and transdermal) vs intravenous injection", "value": "several folds lower than that after intravenous injection"},
      {"measurement": "5FU in blood / plasma", "setting": "[3]; topical delivery (transmammary and transdermal), 6 h", "value": "no amount of 5FU was observed into the blood; also recorded: below the level of detection"},
      {"measurement": "Retention of 5FU in mammary papilla", "setting": "[3]; transdermal treatment, 6 h", "value": "no 5FU was observed into the mammary papilla"},
      {"measurement": "Amount of 5FU in mammary gland", "setting": "[3]; transmammary treatment 250 μl of 10 mg/ml for 6 h, compared with intravenous and transdermal", "value": "highest amount of 5FU in mammary gland"},
      {"measurement": "Retention of 5FU in mammary papilla", "setting": "[3]; transmammary treatment, 6 h", "value": "significant retention of 5FU into the mammary papilla"},
      {"measurement": "lag time", "setting": "[4]; 5FU 20 mg/ml in 50:50 ethanol:water, human mammary papilla with keratin plug removal, n=3-4", "value": "8.76 (1.46) hours"},
      {"measurement": "cumulative amount permeated", "setting": "[4]; [8]", "value": "5.06 (1.17) μmole"},
      {"measurement": "Drug retention in tissue", "setting": "[4]; [8]", "value": "7.30 (2.81) umole/g of tissue"},
      {"measurement": "Flux", "setting": "[4]; [8]", "value": "0.18 (0.05) μmole/cm^2/hour"},
      {"measurement": "cumulative amount permeated", "setting": "[4]; [9]", "value": "0.71 (0.08) μmole"},
      {"measurement": "Drug retention in tissue", "setting": "[4]; [9]", "value": "2.28 (0.04) umole/g of tissue"},
      {"measurement": "Flux", "setting": "[4]; [9]", "value": "0.03 (0.00) μmole/cm^2/hour"},
      {"measurement": "lag time", "setting": "[4]; [9]", "value": "17.96 (3.80) hours"},
      {"measurement": "Permeation profile via human vs porcine mammary papillae", "setting": "[4]; after keratin plug removal, 48 hours (Experiment 15)", "value": "similar"},
      {"measurement": "Increase in permeation across the tissues upon removal of the keratin plugs", "setting": "[4]; human mammary papilla", "value": "more than 7 fold"},
      {"measurement": "lag time", "setting": "[5]; 5FU 20 mg/ml in 1:1 ethanol:water", "value": "3.64 (0.37) hours"},
      {"measurement": "cumulative amount permeated", "setting": "[5]; 5FU 20 mg/ml, 48 hours", "value": "2.69 (0.22) μmole"},
      {"measurement": "Drug retention in tissue", "setting": "[5]; 5FU 20 mg/ml, end of 48 hours", "value": "9.56 (1.11) umole/g of tissue"},
      {"measurement": "Flux", "setting": "[5]; 5FU 20 mg/ml", "value": "0.08 (0.01) μmole/cm^2/hour"}
    ]}
  ]
}
